From publication PMC6635953 (Journal of medicinal chemistry, 2019)
pKd: −log10 of the molar value. Values belong to the compound of their own block, whether it stands above or below them.

Assays:
[1] = target: T1, HpMTAN (Helicobacter pylori, UniProt Q9ZMY2); assay: Inhibition assay of HpMTAN; type: biochemical; settings: for preference for HpMTAN (specificity ratio Kd Hs/Hp): affinity for human MTAP relative to HpMTAN; for binding to the catalytic site of HpMTAN: at concentrations of 5 μM inhibitor
T1 sequence (Q9ZMY2 1-230): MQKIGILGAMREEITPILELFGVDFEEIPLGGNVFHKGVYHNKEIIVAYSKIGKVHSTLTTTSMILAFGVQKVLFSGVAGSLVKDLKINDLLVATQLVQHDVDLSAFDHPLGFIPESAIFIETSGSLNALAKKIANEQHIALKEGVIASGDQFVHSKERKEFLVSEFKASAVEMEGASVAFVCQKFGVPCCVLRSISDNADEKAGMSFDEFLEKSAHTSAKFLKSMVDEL

[2] = target: T2, human MTAP (Homo sapiens, UniProt Q13126); assay: Inhibition assay of MTAP; type: biochemical; settings: for binding to the catalytic site of MTAP: at concentrations of 5 μM inhibitor
T2 sequence (Q13126 1-283): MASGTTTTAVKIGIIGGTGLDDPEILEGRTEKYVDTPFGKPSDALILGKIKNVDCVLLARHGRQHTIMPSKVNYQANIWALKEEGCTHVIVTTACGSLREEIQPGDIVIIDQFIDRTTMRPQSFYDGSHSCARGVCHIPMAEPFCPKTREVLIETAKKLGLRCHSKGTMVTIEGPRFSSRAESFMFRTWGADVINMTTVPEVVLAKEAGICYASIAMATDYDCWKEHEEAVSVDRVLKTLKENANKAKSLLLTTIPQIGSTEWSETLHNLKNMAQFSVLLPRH

pKd [1]: 10.26 to 10.59
preference for HpMTAN (specificity ratio Kd Hs/Hp) [1]: 12- to 36 fold
Compound: C#CCSC[C@H]1CN(Cc2c[nH]c3c(N)ncnc23)C[C@@H]1O [compound 15]

binding to the catalytic site of MTAP [2]: eliminates binding
binding to the catalytic site of HpMTAN [1]: eliminates binding
Compound: CSC[C@H]1CN(Cc2c[nH]c3c(=O)[nH]ccc23)C[C@@H]1O [compound 35]

pKd [1]: 10.26 to 10.59
preference for HpMTAN (specificity ratio Kd Hs/Hp) [1]: 12- to 36 fold
Compound: C#CCCCSC[C@H]1CN(Cc2c[nH]c3c(N)ncnc23)C[C@@H]1O [compound 16]

pKd [1]: 10.26 to 10.59
Compound: CCCCn1cc(CCCSC[C@H]2CN(Cc3c[nH]c4c(N)ncnc34)C[C@@H]2O)nn1 [compound 30]

pKd [1]: 10.26 to 10.59
Compound: Nc1ncnc2c(CN3C[C@H](CSCCCc4cn(Cc5ccccc5)nn4)[C@@H](O)C3)c[nH]c12 [compound 32]

binding to the catalytic site of MTAP [2]: eliminates binding
binding to the catalytic site of HpMTAN [1]: eliminates binding
Compound: O=c1[nH]ccc2c(CN3C[C@H](CO)[C@@H](O)C3)c[nH]c12 [compound 34]

Compound: CSC[C@H]1CN(Cc2c[nH]c3c(N)nccc23)C[C@@H]1O [compound 8, 3-deazaMTDIA]
increase of dissociation constant relative to MTDIA (1), MTAP ([2]; compared with 1 (86 pM)): > 100 fold
increase of dissociation constant relative to MTDIA (1), HpMTAN ([1]; compared with 1 (86 pM)): > 100 fold
